Results: patent US20070105810A1, “THERAPEUTICS” (priority 2003, published 2007)
Several values for one entry are separate records, joined by “and”; a condition that tells them apart may be missing. Equal entries are not always repeated. Entries after “also recorded” stand apart in the source; their conditions may differ. Where two headings read alike, the source gives them in different places.

Columns and labels:
[1] = system: transfer experimental autoimmune encephalomyelitis (EAE) in Lewis rats; experiment: Transfer experimental autoimmune encephalomyelitis (EAE); assay type: in vivo, Lewis rat
Excerpt: Transfer of MBP-specific CD4-positive T cells was used at day 0 to induce experimental autoimmune encephalomyelitis (EAE) in Lewis rats. Animals injected with PBS (vehicle) or nicotinic acid (control compound with structural similarities to BZ52) developed severe paralysis of tail and rear legs due to the inflammation. Clinical symptoms started day 3.5 and reached their maxima day 4 to 6 (or 6.5). Between day 3.5 and day 6, no difference between PBS and nicotinic acid was observed, whereas a beneficial effect of BZ52 was visible (FIG. 14).
Animals (6 per group, body weight approx. 150 g) were injected i.p. twice per day with either PBS (vehicle control), nicotinic acid (50 μmol/100 g body weight), or BZ 52 (50 μmol/100 g body weight). Clinical scores indicate the degree of paralysis of tail and legs. Data are presented as mean±SD from one representative experiment (n=6).
Animals (6 per group, body weight approx. 150 g) were injected i.p. twice per day with either PBS (vehicle control), nicotinic acid (50 μmol/100 g body weight), or BZ 52 (50 μmol/100 g body weight). […] Data are presented as mean±SD from one representative experiment (n=6).
5×10^6 activated MBP specific-GFP Tcells were transferred i.v. into recipient Lewis rats. Clinical EAE was graded in five scores: 0.5, loss of tail tonus; 1, tail paralysis; 2, gait disturbance; 3, hind limb paralysis; 4, tetraparesis; 5, death.
Animals' weight was measured twice a day.
In order to analyze the effect of BZ194 on encephalitogenic T cells during the effector phase of EAE we used retrovirally transduced MBP-specific T cells expressing the marker gene green fluorescent protein (TMBP-GFP cells).
Animals were treated for 5 d intraperitoneally with 500 μmol BZ194 or vehicle (DMSO).

[2] = system: myelin-basic protein (MBP) specific, CD4-positive rat T cell blasts; experiment: In vitro toxicity assay on T cell blasts; assay type: cell-based
Procedure: Resting MBP-GFP Tcells were plated in 96-wells (5×10^4/well). Substances to test were added at different concentration to the cells and incubated for 1 h.
Cells stimulated by the addition of thymocytes (1.5×10^6/well) and MBP.
Absolute numbers of MBP-GFP T cells were determined by quantitative cytofluorometrical analysis after 24 and 48 hours (FACS-Calibur BektonDickinson).
Activated MBP-GFP Tcells were also incubated with different concentration of substances to test and absolute numbers of MBP-GFP T cells were determined by quantitative cytofluorometrical analysis after 24 and 48 hours (FACS-Calibur BektonDickinson).
(§1) Cells were stimulated in presence of MBP-pulsed irradiated APCs and increasing concentrations of BZ194. After 48 h cells were collected for cytofluorometric cell count A and RNA extraction was performed for quantitative PCR analysis (IL2) B. Effect of BZ194 on pre-activated T cell blasts C. Amplification of MBP-specific T cells which had been incubated before in the presence of DMSO or 0.5 mM or 1 mM BZ194 D.

[3] = system: encephalitogenic (MBP-specific GFP) T cells and inflammatory cells in CNS and spleen; experiment: Cytofluorometric cell counts in organs of EAE animals; assay type: in vivo, rat
Procedure: Animals (6 per group, body weight approx. 150 g) were injected i.p. twice per day with either PBS (vehicle control), nicotinic acid (50 μmol/100 g body weight), or BZ 52 (50 μmol/100 g body weight). […] Data are corrected for organ mass and presented as mean±SD from one representative experiment.
Cytofluorometric cell counts of MBP-specific GFP T cells in spleen A and CNS B of BZ194 (500 μmol) and DMSO-treated animals at d 3 after T cell transfer.
Cytofluorometric counts of T cells (CD4/8, abTCR), monocytes/macrophages (CD11b), dendritic cells (CD11c), B cells (OX33/CD45RA) and LFA-1+ (CD11a) and MHC class II+ (OX-6) cells in EAE lesions 4 days after T cell transfer after BZ194 (5 d, 500 μmol, blue bars) or vehicle (DMSO, magenta bars).
Single cell suspensions from organs were prepared as described previously (Flügel et al. 2001, Immunity). TGFP cells were sorted immediately after cell preparation in PBS containing 2% glucose at 4° C. using FACS Vantage (Becton Dickinson) or MoFlo sorter (Cytomation Bioinstruments, Freiburg, Germany). Cytofluorometric analysis was performed with FACS-Calibur operated by Cell Quest software (Becton Dickinson). The following monoclonal antibodies were used for surface membrane analysis: W3/25 (anti-CD4), OX33 (CD45RA, B cells, both from Serotec, Düsseldorf, Germany), R73 (abTCR), OX-6 (rat MHC class II), OX-40 antigen (CD134), OX-39 (CD25, IL-2Ra chain), CD8a, CD8b, CD11a (LFA-1a), CD11b (integrin aM chain), CD11b/c (OX42), CD11c (integrin aX chain) (all Becton Dickinson, Heidelberg, Germany). Allophycocyanin-labeled anti-mouse antibody (Invitrogen, Karlsruhe, Germany) was used as secondary antibody.

[4] = system: myelin-basic protein (MBP) specific, CD4-positive rat T cells; experiment: In vitro proliferation assay (rat encephalitogenic T cells); assay type: cell-based; conditions: for IC50: Rattus norvegicus, CD4 positive, 3H-thymidine incorporation; for proliferation: T-lymphocytes, summary statement
Procedure: A more downstream event of T cell activation was analyzed in myelin-basic protein (MBP) specific, CD4-positive rat T cells. These cells can be driven into proliferation by MBP presented by irradiated thymocytes or by the mitogen concanavalin A (ConA).
Resting MBP-GFP T cells were plated in 96-wells (5×10^4 well) and stimulated by the addition of thymocytes (1.5×10^6/well) and MBP ([…]) or ConA (1.25 μg/ml), respectively.
After 2 days 3H-thymidine (Amersham Biosciences) was added to the activated cells (final concentration 4 μCi/ml); after 16 h of incubation 3H-thymidine incorporation was measured (Matrix 9600-Direct Beta Counter Packad).
as §1
TMBP-GFP cells were co-cultured for 48 h in 96well plates (in DMEM 1% rat serum) with APCs in presence of specific antigen ([…]) or without. Amplification of TMBP-GFP cells was measured by cytofluorometry as described (Kawakami et al. 2005, J.I.). Their numbers were determined in relation to a known absolute number of added phycoerythrin-labeled plastic beads (Becton-Dickinson). The amplification rate was calculated in relation to the GFP+T cell numbers at day 0. Alternatively, [^3H]dT (2 Ci/mmol; Amersham-Buchler) incorporation was used to evaluate proliferation. The radioactive label present in the different cultures was determined as described (Flügel et al., 2001, Immunity)

[5] = 500 μmol BZ194 i.p. for 5 d, mean±SD, Experiments I-III

Row | Structure (SMILES) | decrease in body weight ([1]; 50 μmol/100 g body weight i.p. twice per day) | clinical symptoms (clinical score) vs PBS ([1]; 50 μmol/100 g body weight i.p. twice per day, day 3.5 to day 6) | number of T cell blasts ([2]; BZ52 up to 500 μM, 48 h, non-proliferating cells) | number of encephalitogenic T cells ([3]; day 4 post transfer, 50 μmol/100 g i.p. twice per day) | decrease of number of CNS-infiltrating encephalitogenic T cells ([3]; day 4 post transfer, 50 μmol/100 g i.p. twice per day, one animal per group) | IC50 ([4]; light or radiation study, MBP presented by irradiated thymocytes, read-out: IC50, MBP mediated proliferation) [µM] | IC50 ([4]; ConA 1.25 μg/ml, read-out: IC50, ConA mediated proliferation) [µM] | proliferation [4] | Max. body weight loss (%) [1, 5] | Max. clinical score [1, 5] | clinical EAE (clinical score) ([1]; intraperitoneal BZ194, EAE by i.v. transfer of 5×10^6 TMBP-GFP cells) | amplification of pre-activated MBP-specific T cells ([2]; in the presence of BZ194) | recruitment of T cells, B cells, macrophages and dendritic cells into the CNS ([3]; 4 days after T cell transfer, BZ194 5 d, 500 μmol) | infiltration of MBP-specific T cells into the CNS ([3]; spinal cord, three days after T cell transfer, BZ194 500 μmol) | distribution of TMBP-GFP cells in spleen ([3]; three days after T cell transfer, BZ194 500 μmol) | T cell proliferation ([4]; MBP-pulsed irradiated APCs, increasing concentrations of BZ194, 48 h) | proliferative response towards MBP challenge ([4]; after foregoing incubation with 0.5 mM or 1 mM BZ194) | viability and reactivity of TMBP-GFP cells ([4]; cells isolated ex vivo from BZ194-treated animals, challenge with MBP (not shown))
1 | CCCCN(CCCC)C(=O)C[n+]1cccc(C(=O)O)c1 [BZ52, 3-Carboxy-1-dibutylcarbamoylmethyl-pyridinium] | less pronounced decrease | a less rapid increase of symptoms, a decreased maximum score and a more rapid decline of clinical symptoms | did not much reduce | reduced significantly | about 50% | ~500 | ~100 | efficiently inhibited |  |  |  |  |  |  |  |  |  | 
2 | CCCCCCCCNC(=O)C[n+]1cccc(C(=O)O)c1.[Br-] [BZ194, 3-Carboxy-1-Octylcarbamoylmethyl-Pyridinium] |  |  |  |  |  |  |  | efficiently inhibited | 8 ± 1.6% and 10 ± 4.4% and 9 ± 4.3% | 1.6 ± 0.5 and 1.4 ± 0.8 | suppressed; also recorded: significantly ameliorated | not influenced | clearly diminished | reduced; also recorded: seemed to interfere | accumulated in the spleen | anti-proliferative effect; also recorded: dose dependently suppressed | did not block | remained viable and fully reactive
